Results published in patent US20030134784A1, “Nucleic acids and corresponding proteins entitled 83P2H3 and CaTrF2E11 useful in treatment and detection of cancer” (priority 2000, published 2003).

How the values were obtained:
PC3-neo cells = assay: ERK phosphorylation in response to ion channel activators (anti-phospho-ERK Western blotting); assay type: cell-based, human; conditions: PC3-neo cells grown in 0.1% FBS, treated for 5 min
Text: (§1) FIG. 22. Mediation of ERK phosphorylation by hCaT via a variety of ion channel activators. Control and 83P2H3/hCaT-expressing PC3 cell were compared for their ability to induce ERK phosphorylation in response to ion channel activators known to regulate intracellular calcium levels in several cell types. […] Whole cell lysates were separated by SDS-PAGE and analyzed by Western blotting using an anti-phospho-ERK monoclonal antibody (New England Nuclear, Bedford, Mass.). Anti-ERK overlays were used to evaluate protein loading.
(§2) Many mammalian proteins have been reported to interact with signaling molecules and to participate in regulating signaling pathways (J Neurochem. 2001; 76:217-223). Using immunoprecipitation and Western blotting techniques, proteins are identified that associate with 83P2H3 and mediate signaling events. Several pathways known to play a role in cancer biology can be regulated by several of these genes, including phospholipid pathways such as P13K, AKT, etc, adhesion and migration pathways, including FAK, Rho, Rac-1, etc, as well as mitogenic/survival cascades such as ERK, p38, etc (Cell Growth Differ. 2000,11:279; J Biol Chem. 1999, 274:801; Oncogene 2000, 19:3003, J. Cell Biol. 1997, 138:913.). Using Western blotting techniques, the ability of 83P2H3 to regulate these pathways is examined. Cells expressing 83P2H3 and cells lacking these genes are either left untreated or stimulated with ions, channel activators, or antibodies. Cell lysates are analyzed using anti-phospho-specific antibodies (Cell Signaling, Santa Cruz Biotechnology) in order to detect phosphorylation and regulation of ERK, p38, AKT, P13K, PLC and other signaling molecules.

[1] = test system: 83P2H3/hCaT-expressing PC3 cell; assay: as above; assay type: cell-based, human; conditions: hCaT-expressing PC3 cells grown in 0.1% FBS, treated for 5 min
Text: as §1, §2

T helper lymphocytes = conditions: regardless of HLA type; cited from earlier work
HLA-DR = conditions: cited from earlier work

| Compound | ERK phosphorylation (PC3-neo cells) | ERK phosphorylation [1] | Stimulation of the response of T helper lymphocytes (T helper lymphocytes) | Binding to HLA-DR alleles (HLA-DR) |
| --- | --- | --- | --- | --- |
| CCCCCCCCCCCCCC(=O)O[C@@H]1[C@@H](C)[C@@]2(O)[C@@H](C=C(CO)C[C@]3(O)C(=O)C(C)=C[C@@H]23)[C@@H]2C(C)(C)[C@]12OC(C)=O [PMA] | induced ERK phosphorylation | induced ERK phosphorylation |  |  |
| C[C@H](CCC(=O)O)C[C@H](C)C[C@H](C)C(=O)/C=C(\O)[C@H](C)C[C@H](C)C/C=C/[C@@H](C)[C@@H](O)[C@@H](C)[C@@H](O)C[C@@H]1CC[C@@](C)([C@H]2CC[C@@](C)([C@@H](C)O)O2)O1 [ionomycin] |  | induced ERK phosphorylation |  |  |
| LPA |  | induced ERK phosphorylation |  |  |
| aKXVAAWTLKAAa |  |  | stimulate the response of T helper lymphocytes from most individuals | bind to most HLA-DR alleles |
